# Measured values from patent US20110039721A1, “METHOD FOR PREDICTION ABOUT CARCINOGENICITY OF SUBSTANCE IN RODENT” (Chemicals Evaluation and Research Institute, priority 2007, published 2011).
# How the values were obtained:
# [1] = test system: liver; details: in vivo; cited from earlier work
# [2] = test system: rodent; details: in vivo; cited from earlier work
# [3] = test system: mRNA expressed from the genes (A) to (D) in rat liver; assay: Behavior of genes (mRNA expression level, oligo-DNA microarray) in rat liver after 28-day oral administration; type: in vivo
# Method in brief: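 Male F344 SPF rats, 5 weeks old, four per group, dosed by oral gavage once daily for 28 days with test chemical or matched-volume solvent. Liver total RNA profiled on oligo-DNA microarray. Change ≥1.5-fold or ≤1/1.5 versus vehicle counted as significant if its direction matched that seen with other carcinogens.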
# [4] = gene group (A), Unigene No. Rn.167075
# [5] = gene group (C), Unigene No. Rn.120914
# [6] = (C), Unigene Rn.120914, defined direction +, rat liver, oral once daily 28 days
smiles,measurement,setting,value
"CCC[N+](=O)[O-] [TS036, 1-Nitropropane]",Liver carcinogenicity,[1],Cr−
same,Carcinogenicity,[2],C−
same,"Behavior of gene caused by administration of chemical substance, Gene No. 4846","[3]; gene group (A), Unigene No. Rn.144554",−
same,"Behavior of gene caused by administration of chemical substance, Gene No. 2026",[3]; [4],−
same,"Behavior of gene caused by administration of chemical substance, Gene No. 4218",[3]; [4],−
same,"Behavior of gene caused by administration of chemical substance, Gene No. 6182","[3]; gene group (A), Unigene No. Rn.5834",−
same,"Behavior of gene caused by administration of chemical substance, Gene No. 5600","[3]; gene group (A), Unigene No. Rn.9836",−
same,"Behavior of gene caused by administration of chemical substance, Gene No. 1494","[3]; gene group (B), Unigene No. Rn.1430",−
same,"Behavior of gene caused by administration of chemical substance, Gene No. 2045","[3]; gene group (B), Unigene No. Rn.19329",−
same,"Behavior of gene caused by administration of chemical substance, Gene No. 2203","[3]; gene group (B), Unigene No. Rn.21240",−
same,"Behavior of gene caused by administration of chemical substance, Gene No. 533","[3]; gene group (C), Unigene No. Rn.106184",−
same,"Behavior of gene caused by administration of chemical substance, Gene No. 725","[3]; gene group (C), Unigene No. Rn.108075",+
same,"Behavior of gene caused by administration of chemical substance, Gene No. 1163","[3]; gene group (C), Unigene No. Rn.11766",−
same,"Behavior of gene caused by administration of chemical substance, Gene No. 4973","[3]; gene group (C), Unigene No. Rn.118529",+
same,"Behavior of gene caused by administration of chemical substance, Gene No. 4095","[3]; gene group (C), Unigene No. Rn.119024",+
same,"Behavior of gene caused by administration of chemical substance, Gene No. 1334",[3]; [5],−
same,"Behavior of gene caused by administration of chemical substance, Gene No. 6620",[3]; [5],−
same,"Behavior of gene caused by administration of chemical substance, Gene No. 6303","[3]; gene group (C), Unigene No. Rn.123063",−
same,"Behavior of gene caused by administration of chemical substance, Gene No. 5878","[3]; gene group (C), Unigene No. Rn.143213",+
same,"Behavior of gene caused by administration of chemical substance, Gene No. 1131","[3]; gene group (C), Unigene No. Rn.144946",+
same,"Behavior of gene caused by administration of chemical substance, Gene No. 1562","[3]; gene group (C), Unigene No. Rn.14744",+
same,"Behavior of gene caused by administration of chemical substance, Gene No. 1741","[3]; gene group (C), Unigene No. Rn.1647",+
same,"Behavior of gene caused by administration of chemical substance, Gene No. 893","[3]; gene group (C), Unigene No. Rn.164817",+
same,"Behavior of gene caused by administration of chemical substance, Gene No. 6026","[3]; gene group (C), Unigene No. Rn.167685",−
same,"Behavior of gene caused by administration of chemical substance, Gene No. 154","[3]; gene group (C), Unigene No. Rn.185941",+
same,"Behavior of gene caused by administration of chemical substance, Gene No. 1993","[3]; gene group (C), Unigene No. Rn.18728",+
same,"Behavior of gene caused by administration of chemical substance, Gene No. 813","[3]; gene group (C), Unigene No. Rn.201760",−
same,"Behavior of gene caused by administration of chemical substance, Gene No. 2494","[3]; gene group (C), Unigene No. Rn.23969",−
same,"Behavior of gene caused by administration of chemical substance, Gene No. 2546","[3]; gene group (C), Unigene No. Rn.24561",+
same,"Behavior of gene caused by administration of chemical substance, Gene No. 3776","[3]; gene group (C), Unigene No. Rn.43232",+
same,"Behavior of gene caused by administration of chemical substance, Gene No. 3929","[3]; gene group (C), Unigene No. Rn.4620",+
same,"Behavior of gene caused by administration of chemical substance, Gene No. 1119","[3]; gene group (C), Unigene No. Rn.9757",+
same,"Behavior of gene caused by administration of chemical substance, Gene No. 6742","[3]; gene group (C), Unigene No. Rn.9779",−
same,"Behavior of gene caused by administration of chemical substance, Gene No. 5634","[3]; gene group (C), Unigene No. Rn.9862",−
same,"Behavior of gene caused by administration of chemical substance, Gene No. 5726","[3]; gene group (D), Unigene No. Rn.9939",−
"CN(C)N=O [TS041, N-Nitrosodimethylamine]",Liver carcinogenicity,[1],Cr+
same,Carcinogenicity,[2],C+
same,"Behavior of gene caused by administration of chemical substance, Gene No. 4846","[3]; (A), Unigene Rn.144554, defined direction +, rat liver, oral once daily 28 days",+
same,"Behavior of gene caused by administration of chemical substance, Gene No. 4218","[3]; (A), Unigene Rn.167075, defined direction +, rat liver, oral once daily 28 days, significant = 1.5 times or more or 1/1.5 or less of control",+
same,"Behavior of gene caused by administration of chemical substance, Gene No. 2026","[3]; (A), Unigene Rn.167075, defined direction −, rat liver, oral once daily 28 days",−
same,"Behavior of gene caused by administration of chemical substance, Gene No. 6182","[3]; (A), Unigene Rn.5834, defined direction +, rat liver, oral once daily 28 days",+
same,"Behavior of gene caused by administration of chemical substance, Gene No. 5600","[3]; (A), Unigene Rn.9836, defined direction +, rat liver, oral once daily 28 days",+
same,"Behavior of gene caused by administration of chemical substance, Gene No. 1494","[3]; (B), Unigene Rn.1430, defined direction −, rat liver, oral once daily 28 days",−
same,"Behavior of gene caused by administration of chemical substance, Gene No. 2045","[3]; (B), Unigene Rn.19329, defined direction +, rat liver, oral once daily 28 days",−
same,"Behavior of gene caused by administration of chemical substance, Gene No. 2203","[3]; (B), Unigene Rn.21240, defined direction +, rat liver, oral once daily 28 days",−
same,"Behavior of gene caused by administration of chemical substance, Gene No. 533","[3]; (C), Unigene Rn.106184, defined direction +, rat liver, oral once daily 28 days",−
same,"Behavior of gene caused by administration of chemical substance, Gene No. 725","[3]; (C), Unigene Rn.108075, defined direction −, rat liver, oral once daily 28 days",−
same,"Behavior of gene caused by administration of chemical substance, Gene No. 1163","[3]; (C), Unigene Rn.11766, defined direction +, rat liver, oral once daily 28 days",−
same,"Behavior of gene caused by administration of chemical substance, Gene No. 4973","[3]; (C), Unigene Rn.118529, defined direction −, rat liver, oral once daily 28 days",−
same,"Behavior of gene caused by administration of chemical substance, Gene No. 4095","[3]; (C), Unigene Rn.119024, defined direction −, rat liver, oral once daily 28 days",−
same,"Behavior of gene caused by administration of chemical substance, Gene No. 1334",[3]; [6],−
same,"Behavior of gene caused by administration of chemical substance, Gene No. 6620",[3]; [6],−
same,"Behavior of gene caused by administration of chemical substance, Gene No. 6303","[3]; (C), Unigene Rn.123063, defined direction −, rat liver, oral once daily 28 days",−
same,"Behavior of gene caused by administration of chemical substance, Gene No. 5878","[3]; (C), Unigene Rn.143213, defined direction −, rat liver, oral once daily 28 days",−
same,"Behavior of gene caused by administration of chemical substance, Gene No. 1131","[3]; (C), Unigene Rn.144946, defined direction −, rat liver, oral once daily 28 days",−
same,"Behavior of gene caused by administration of chemical substance, Gene No. 1562","[3]; (C), Unigene Rn.14744, defined direction −, rat liver, oral once daily 28 days",−
same,"Behavior of gene caused by administration of chemical substance, Gene No. 1741","[3]; (C), Unigene Rn.1647, defined direction −, rat liver, oral once daily 28 days",−
same,"Behavior of gene caused by administration of chemical substance, Gene No. 893","[3]; (C), Unigene Rn.164817, defined direction +, rat liver, oral once daily 28 days",−
same,"Behavior of gene caused by administration of chemical substance, Gene No. 6026","[3]; (C), Unigene Rn.167685, defined direction −, rat liver, oral once daily 28 days",−
same,"Behavior of gene caused by administration of chemical substance, Gene No. 154","[3]; (C), Unigene Rn.185941, defined direction −, rat liver, oral once daily 28 days",−
same,"Behavior of gene caused by administration of chemical substance, Gene No. 1993","[3]; (C), Unigene Rn.18728, defined direction −, rat liver, oral once daily 28 days",−
same,"Behavior of gene caused by administration of chemical substance, Gene No. 813","[3]; (C), Unigene Rn.201760, defined direction +, rat liver, oral once daily 28 days",−
same,"Behavior of gene caused by administration of chemical substance, Gene No. 2494","[3]; (C), Unigene Rn.23969, defined direction +, rat liver, oral once daily 28 days",−
same,"Behavior of gene caused by administration of chemical substance, Gene No. 2546","[3]; (C), Unigene Rn.24561, defined direction −, rat liver, oral once daily 28 days",−
same,"Behavior of gene caused by administration of chemical substance, Gene No. 3776","[3]; (C), Unigene Rn.43232, defined direction −, rat liver, oral once daily 28 days",−
same,"Behavior of gene caused by administration of chemical substance, Gene No. 3929","[3]; (C), Unigene Rn.4620, defined direction +, rat liver, oral once daily 28 days",−
same,"Behavior of gene caused by administration of chemical substance, Gene No. 1119","[3]; (C), Unigene Rn.9757, defined direction +, rat liver, oral once daily 28 days",−
same,"Behavior of gene caused by administration of chemical substance, Gene No. 6742","[3]; (C), Unigene Rn.9779, defined direction +, rat liver, oral once daily 28 days",+
same,"Behavior of gene caused by administration of chemical substance, Gene No. 5634","[3]; (C), Unigene Rn.9862, defined direction −, rat liver, oral once daily 28 days",−
same,"Behavior of gene caused by administration of chemical substance, Gene No. 5726","[3]; (D), Unigene Rn.9939, defined direction −, rat liver, oral once daily 28 days",−
